# System: rice
# Assay: Low temperature assay on rice seedlings
# Assay type: in vivo
# Protocol: According to a low temperature assay, we measured parameters including plant height, number of leaf, area of leaf, number of tiller, weight of root at low temperature to completely determine effects of the natural brassinolide analogues on the resistance to low temperature of a plant.
# The natural brassinolide analogues, BR1, BR2, BR3, BR4, BR5 and BR6, used herein, were those prepared by the method of Example 1. Respectively the analogues were dissolved into 95% (V/V) ethanol solution, and then diluted with pure water to 1 mg/L, 0.1 mg/L, 0.01 mg/L, 0.001 mg/L and 0.0001 mg/L. In addition, pure water was used as a control.
# After rice seeds were disinfected by using 5% sodium hypochlorite solution treatment, they were rinsed with distilled water until their pH>7, placed into a petri dish in a dark incubator, and cultured by using water at 30° C.±2° C. for 9 days. Then respectively the nine-day-old etiolated seedlings of rice were immersed in the above solutions containing different concentrations of the natural brassinolide analogues or pure water, and cultured at the temperature of 1° C., 2° C., 3° C., 4° C. and 5° C. for 24 hr. The parameters including plant height, area of leaf and weight of root after 3, 6, 9 and 12 days and number of leaf and number of tiller after 12 days were measured.
compound,measurement,setting,value
CC[C@@H](C(C)C)[C@@H](O)[C@H](O)[C@@H](C)[C@H]1CCC2C3COC(=O)C4C[C@H](O)[C@H](O)C[C@]4(C)C3CC[C@@]21C (stereo partly shown) [BR2],Height,"0.01 mg/l, 3 °C, 9 days",7.7 cm
same,Weight of root,"0.01 mg/l, 3 °C, 9 days",2.9 g
same,Area of leaf,"0.01 mg/l, 3 °C, 12 days",13.2 cm^2
same,Height,"0.01 mg/l, 3 °C, 12 days",7.9 cm
same,Number of leaf,"0.01 mg/l, 3 °C, 12 days",3
same,Number of tiller,"0.01 mg/l, 3 °C, 12 days",2
same,Weight of root,"0.01 mg/l, 3 °C, 12 days",2.9 g
same,Area of leaf,"0.01 mg/l, 4 °C, 3 days",10.8 cm^2
same,Height,"0.01 mg/l, 4 °C, 3 days",7.1 cm
same,Weight of root,"0.01 mg/l, 4 °C, 3 days",2.5 g
same,Area of leaf,"0.01 mg/l, 4 °C, 6 days",12.4 cm^2
same,Height,"0.01 mg/l, 4 °C, 6 days",7.5 cm
same,Weight of root,"0.01 mg/l, 4 °C, 6 days",2.6 g
same,Area of leaf,"0.01 mg/l, 4 °C, 9 days",13.2 cm^2
same,Height,"0.01 mg/l, 4 °C, 9 days",7.7 cm
same,Weight of root,"0.01 mg/l, 4 °C, 9 days",2.9 g
same,Area of leaf,"0.01 mg/l, 4 °C, 12 days",13.5 cm^2
same,Height,"0.01 mg/l, 4 °C, 12 days",7.8 cm
same,Number of leaf,"0.01 mg/l, 4 °C, 12 days",3
same,Number of tiller,"0.01 mg/l, 4 °C, 12 days",2
same,Weight of root,"0.01 mg/l, 4 °C, 12 days",3.0 g
same,Area of leaf,"0.01 mg/l, 5 °C, 3 days",10.3 cm^2
same,Height,"0.01 mg/l, 5 °C, 3 days",7.4 cm
same,Weight of root,"0.01 mg/l, 5 °C, 3 days",2.8 g
same,Area of leaf,"0.01 mg/l, 5 °C, 6 days",13.1 cm^2
same,Height,"0.01 mg/l, 5 °C, 6 days",7.6 cm
same,Weight of root,"0.01 mg/l, 5 °C, 6 days",3.0 g
same,Area of leaf,"0.01 mg/l, 5 °C, 9 days",16.4 cm^2
same,Height,"0.01 mg/l, 5 °C, 9 days",8 cm
same,Weight of root,"0.01 mg/l, 5 °C, 9 days",3.4 g
same,Area of leaf,"0.01 mg/l, 5 °C, 12 days",17 cm^2
same,Height,"0.01 mg/l, 5 °C, 12 days",8.2 cm
same,Number of leaf,"0.01 mg/l, 5 °C, 12 days",4
same,Number of tiller,"0.01 mg/l, 5 °C, 12 days",3
same,Weight of root,"0.01 mg/l, 5 °C, 12 days",3.9 g
same,Area of leaf,"0.1 mg/l, 1 °C, 3 days",10.1 cm^2
same,Height,"0.1 mg/l, 1 °C, 3 days",7.0 cm
same,Weight of root,"0.1 mg/l, 1 °C, 3 days",2.8 g
same,Area of leaf,"0.1 mg/l, 1 °C, 6 days",11 cm^2
same,Height,"0.1 mg/l, 1 °C, 6 days",7.2 cm
same,Weight of root,"0.1 mg/l, 1 °C, 6 days",3.0 g
same,Area of leaf,"0.1 mg/l, 1 °C, 9 days",12.1 cm^2
same,Height,"0.1 mg/l, 1 °C, 9 days",7.3 cm
same,Weight of root,"0.1 mg/l, 1 °C, 9 days",3.4 g
same,Area of leaf,"0.1 mg/l, 1 °C, 12 days",13.4 cm^2
same,Height,"0.1 mg/l, 1 °C, 12 days",7.4 cm
same,Number of leaf,"0.1 mg/l, 1 °C, 12 days",3
same,Number of tiller,"0.1 mg/l, 1 °C, 12 days",3
same,Weight of root,"0.1 mg/l, 1 °C, 12 days",3.6 g
same,Area of leaf,"0.1 mg/l, 2 °C, 3 days",10.4 cm^2
same,Height,"0.1 mg/l, 2 °C, 3 days",7.1 cm
same,Weight of root,"0.1 mg/l, 2 °C, 3 days",2.8 g
same,Area of leaf,"0.1 mg/l, 2 °C, 6 days",11.2 cm^2
same,Height,"0.1 mg/l, 2 °C, 6 days",7.3 cm
same,Weight of root,"0.1 mg/l, 2 °C, 6 days",3.0 g
same,Area of leaf,"0.1 mg/l, 2 °C, 9 days",12.6 cm^2
same,Height,"0.1 mg/l, 2 °C, 9 days",7.3 cm
same,Weight of root,"0.1 mg/l, 2 °C, 9 days",3.1 g
same,Area of leaf,"0.1 mg/l, 2 °C, 12 days",13.6 cm^2
same,Height,"0.1 mg/l, 2 °C, 12 days",7.4 cm
same,Number of leaf,"0.1 mg/l, 2 °C, 12 days",3
same,Number of tiller,"0.1 mg/l, 2 °C, 12 days",3
same,Weight of root,"0.1 mg/l, 2 °C, 12 days",3.2 g
same,Area of leaf,"0.1 mg/l, 3 °C, 3 days",10.5 cm^2
same,Height,"0.1 mg/l, 3 °C, 3 days",7.4 cm
same,Weight of root,"0.1 mg/l, 3 °C, 3 days",2.5 g
same,Area of leaf,"0.1 mg/l, 3 °C, 6 days",12 cm^2
same,Height,"0.1 mg/l, 3 °C, 6 days",7.4 cm
same,Weight of root,"0.1 mg/l, 3 °C, 6 days",2.7 g
same,Area of leaf,"0.1 mg/l, 3 °C, 9 days",12.6 cm^2
same,Height,"0.1 mg/l, 3 °C, 9 days",7.8 cm
same,Weight of root,"0.1 mg/l, 3 °C, 9 days",2.9 g
same,Area of leaf,"0.1 mg/l, 3 °C, 12 days",13.4 cm^2
same,Height,"0.1 mg/l, 3 °C, 12 days",7.9 cm
same,Number of leaf,"0.1 mg/l, 3 °C, 12 days",3
same,Number of tiller,"0.1 mg/l, 3 °C, 12 days",2
same,Weight of root,"0.1 mg/l, 3 °C, 12 days",2.9 g
same,Area of leaf,"0.1 mg/l, 4 °C, 3 days",10.8 cm^2
same,Height,"0.1 mg/l, 4 °C, 3 days",7.5 cm
same,Weight of root,"0.1 mg/l, 4 °C, 3 days",2.5 g
same,Area of leaf,"0.1 mg/l, 4 °C, 6 days",12.1 cm^2
same,Height,"0.1 mg/l, 4 °C, 6 days",7.5 cm
same,Weight of root,"0.1 mg/l, 4 °C, 6 days",2.7 g
same,Area of leaf,"0.1 mg/l, 4 °C, 9 days",13.4 cm^2
same,Height,"0.1 mg/l, 4 °C, 9 days",8 cm
same,Weight of root,"0.1 mg/l, 4 °C, 9 days",2.9 g
same,Area of leaf,"0.1 mg/l, 4 °C, 12 days",13.8 cm^2
same,Height,"0.1 mg/l, 4 °C, 12 days",8.1 cm
same,Number of leaf,"0.1 mg/l, 4 °C, 12 days",3
same,Number of tiller,"0.1 mg/l, 4 °C, 12 days",2
same,Weight of root,"0.1 mg/l, 4 °C, 12 days",3.1 g
same,Area of leaf,"0.1 mg/l, 5 °C, 3 days",11 cm^2
same,Height,"0.1 mg/l, 5 °C, 3 days",7.5 cm
same,Weight of root,"0.1 mg/l, 5 °C, 3 days",2.9 g
same,Area of leaf,"0.1 mg/l, 5 °C, 6 days",12.9 cm^2
same,Height,"0.1 mg/l, 5 °C, 6 days",7.6 cm
same,Weight of root,"0.1 mg/l, 5 °C, 6 days",3.2 g
same,Area of leaf,"0.1 mg/l, 5 °C, 9 days",16.8 cm^2
same,Height,"0.1 mg/l, 5 °C, 9 days",8.1 cm
same,Weight of root,"0.1 mg/l, 5 °C, 9 days",3.5 g
same,Area of leaf,"0.1 mg/l, 5 °C, 12 days",19 cm^2
same,Height,"0.1 mg/l, 5 °C, 12 days",8.3 cm
same,Number of leaf,"0.1 mg/l, 5 °C, 12 days",3
same,Number of tiller,"0.1 mg/l, 5 °C, 12 days",2
same,Weight of root,"0.1 mg/l, 5 °C, 12 days",4.1 g
same,Area of leaf,"1 mg/l, 1 °C, 3 days",10 cm^2
same,Height,"1 mg/l, 1 °C, 3 days",7.2 cm
same,Weight of root,"1 mg/l, 1 °C, 3 days",2.6 g
same,Area of leaf,"1 mg/l, 1 °C, 6 days",11.2 cm^2
same,Height,"1 mg/l, 1 °C, 6 days",7.3 cm
same,Weight of root,"1 mg/l, 1 °C, 6 days",3.1 g
same,Area of leaf,"1 mg/l, 1 °C, 9 days",12.4 cm^2
same,Height,"1 mg/l, 1 °C, 9 days",7.3 cm
same,Weight of root,"1 mg/l, 1 °C, 9 days",3.2 g
same,Area of leaf,"1 mg/l, 1 °C, 12 days",13 cm^2
same,Height,"1 mg/l, 1 °C, 12 days",7.9 cm
same,Number of leaf,"1 mg/l, 1 °C, 12 days",3
same,Number of tiller,"1 mg/l, 1 °C, 12 days",3
same,Weight of root,"1 mg/l, 1 °C, 12 days",3.7 g
same,Area of leaf,"1 mg/l, 2 °C, 3 days",10.2 cm^2
same,Height,"1 mg/l, 2 °C, 3 days",7.2 cm
same,Weight of root,"1 mg/l, 2 °C, 3 days",2.6 g
same,Area of leaf,"1 mg/l, 2 °C, 6 days",11.7 cm^2
same,Height,"1 mg/l, 2 °C, 6 days",7.2 cm
same,Weight of root,"1 mg/l, 2 °C, 6 days",3.0 g
same,Area of leaf,"1 mg/l, 2 °C, 9 days",12.6 cm^2
same,Height,"1 mg/l, 2 °C, 9 days",7.3 cm
same,Weight of root,"1 mg/l, 2 °C, 9 days",3.2 g
same,Area of leaf,"1 mg/l, 2 °C, 12 days",13 cm^2
same,Height,"1 mg/l, 2 °C, 12 days",8 cm
same,Number of leaf,"1 mg/l, 2 °C, 12 days",3
same,Number of tiller,"1 mg/l, 2 °C, 12 days",3
same,Weight of root,"1 mg/l, 2 °C, 12 days",3.7 g
same,Area of leaf,"1 mg/l, 3 °C, 3 days",10.4 cm^2
same,Height,"1 mg/l, 3 °C, 3 days",7.4 cm
same,Weight of root,"1 mg/l, 3 °C, 3 days",2.5 g
same,Area of leaf,"1 mg/l, 3 °C, 6 days",12 cm^2
same,Height,"1 mg/l, 3 °C, 6 days",7.5 cm
same,Weight of root,"1 mg/l, 3 °C, 6 days",2.6 g
same,Area of leaf,"1 mg/l, 3 °C, 9 days",12.1 cm^2
same,Height,"1 mg/l, 3 °C, 9 days",7.9 cm
same,Weight of root,"1 mg/l, 3 °C, 9 days",2.9 g
same,Area of leaf,"1 mg/l, 3 °C, 12 days",13.2 cm^2
same,Height,"1 mg/l, 3 °C, 12 days",8.1 cm
same,Number of leaf,"1 mg/l, 3 °C, 12 days",3
same,Number of tiller,"1 mg/l, 3 °C, 12 days",2
same,Weight of root,"1 mg/l, 3 °C, 12 days",2.9 g
same,Area of leaf,"1 mg/l, 4 °C, 3 days",10.9 cm^2
same,Height,"1 mg/l, 4 °C, 3 days",7.4 cm
same,Weight of root,"1 mg/l, 4 °C, 3 days",2.5 g
same,Area of leaf,"1 mg/l, 4 °C, 6 days",12.6 cm^2
same,Height,"1 mg/l, 4 °C, 6 days",7.5 cm
same,Weight of root,"1 mg/l, 4 °C, 6 days",2.7 g
same,Area of leaf,"1 mg/l, 4 °C, 9 days",13.2 cm^2
same,Height,"1 mg/l, 4 °C, 9 days",8.0 cm
same,Weight of root,"1 mg/l, 4 °C, 9 days",3.0 g
same,Area of leaf,"1 mg/l, 4 °C, 12 days",14 cm^2
same,Height,"1 mg/l, 4 °C, 12 days",8.2 cm
same,Number of leaf,"1 mg/l, 4 °C, 12 days",3
same,Number of tiller,"1 mg/l, 4 °C, 12 days",2
same,Weight of root,"1 mg/l, 4 °C, 12 days",3.2 g
same,Area of leaf,"1 mg/l, 5 °C, 3 days",11.1 cm^2
same,Height,"1 mg/l, 5 °C, 3 days",7.4 cm
same,Weight of root,"1 mg/l, 5 °C, 3 days",2.9 g
same,Area of leaf,"1 mg/l, 5 °C, 6 days",13.1 cm^2
same,Height,"1 mg/l, 5 °C, 6 days",7.7 cm
same,Weight of root,"1 mg/l, 5 °C, 6 days",3.5 g
same,Area of leaf,"1 mg/l, 5 °C, 9 days",18 cm^2
same,Height,"1 mg/l, 5 °C, 9 days",8.2 cm
same,Weight of root,"1 mg/l, 5 °C, 9 days",3.7 g
same,Area of leaf,"1 mg/l, 5 °C, 12 days",20 cm^2
same,Height,"1 mg/l, 5 °C, 12 days",8.4 cm
same,Number of leaf,"1 mg/l, 5 °C, 12 days",3
same,Number of tiller,"1 mg/l, 5 °C, 12 days",2
same,Weight of root,"1 mg/l, 5 °C, 12 days",4.5 g

# Source: patent US9326506B2, “Preparation method, agricultural composition and applications of natural brassinolide analogs” (CHENGDU NEWSUN CROPSCIENCE CO., LTD, priority 2012, dated 2016)
